From patent US10099993B2, “Metabotropic glutamate receptor positive allosteric modulators (PAMS) and uses thereof” (Sanford-Burnham Medical Research Institute, priority 2014, dated 2018)

Columns and labels:
mGlu2 = mGlu2 (Rattus norvegicus (Rat), UniProt P31421); test: mGlu2 GIRK thallium flux assay; settings: for EC50: read-out: mGlu2 PAM EC50, test compound, then EC20 glutamate […] later in the presence of thallium; for Emax: read-out: mGlu2 PAM Max;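 for all read-outs here: Cell-based assay, rate of fluorescence rise right after thallium plus agonist addition read on a kinetic imaging plate reader, normalized to vehicle and maximal agonist control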
mGlu2, sequence (P31421 19-872): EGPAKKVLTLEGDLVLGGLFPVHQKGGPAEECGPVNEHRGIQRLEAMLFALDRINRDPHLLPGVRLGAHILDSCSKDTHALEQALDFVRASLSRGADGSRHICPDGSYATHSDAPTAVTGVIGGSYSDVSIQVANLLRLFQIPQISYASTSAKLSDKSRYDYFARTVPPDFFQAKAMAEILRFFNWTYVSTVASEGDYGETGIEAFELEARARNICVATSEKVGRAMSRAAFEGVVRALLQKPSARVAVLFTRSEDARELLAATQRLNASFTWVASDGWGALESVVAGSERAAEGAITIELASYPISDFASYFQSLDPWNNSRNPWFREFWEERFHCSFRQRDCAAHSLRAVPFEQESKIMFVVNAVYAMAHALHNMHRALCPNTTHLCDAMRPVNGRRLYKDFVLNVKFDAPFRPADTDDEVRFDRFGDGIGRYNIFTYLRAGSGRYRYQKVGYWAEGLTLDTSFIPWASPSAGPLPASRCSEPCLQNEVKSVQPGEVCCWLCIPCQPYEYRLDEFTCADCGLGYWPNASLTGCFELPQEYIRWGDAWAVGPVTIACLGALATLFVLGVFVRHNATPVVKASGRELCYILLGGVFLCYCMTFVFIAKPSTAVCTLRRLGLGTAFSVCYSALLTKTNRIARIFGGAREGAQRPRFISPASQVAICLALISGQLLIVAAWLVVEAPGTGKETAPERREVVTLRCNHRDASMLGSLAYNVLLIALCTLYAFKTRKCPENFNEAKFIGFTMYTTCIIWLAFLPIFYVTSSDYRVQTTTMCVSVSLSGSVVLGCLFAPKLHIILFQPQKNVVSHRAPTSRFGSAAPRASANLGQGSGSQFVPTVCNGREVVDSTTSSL

mGlu3 = mGlu3 (Rattus norvegicus (Rat), UniProt P31422); test: mGlu3 GIRK thallium flux assay; settings: for EC50: read-out: mGlu3 PAM EC50, test compound, then EC20 glutamate […] later in the presence of thallium; for Emax: read-out: mGlu3 PAM Max;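 for all read-outs here: kinetic fluorescence slope read shortly after thallium plus agonist addition, scaled between vehicle and maximal agonist control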
mGlu3, sequence (P31422 23-879): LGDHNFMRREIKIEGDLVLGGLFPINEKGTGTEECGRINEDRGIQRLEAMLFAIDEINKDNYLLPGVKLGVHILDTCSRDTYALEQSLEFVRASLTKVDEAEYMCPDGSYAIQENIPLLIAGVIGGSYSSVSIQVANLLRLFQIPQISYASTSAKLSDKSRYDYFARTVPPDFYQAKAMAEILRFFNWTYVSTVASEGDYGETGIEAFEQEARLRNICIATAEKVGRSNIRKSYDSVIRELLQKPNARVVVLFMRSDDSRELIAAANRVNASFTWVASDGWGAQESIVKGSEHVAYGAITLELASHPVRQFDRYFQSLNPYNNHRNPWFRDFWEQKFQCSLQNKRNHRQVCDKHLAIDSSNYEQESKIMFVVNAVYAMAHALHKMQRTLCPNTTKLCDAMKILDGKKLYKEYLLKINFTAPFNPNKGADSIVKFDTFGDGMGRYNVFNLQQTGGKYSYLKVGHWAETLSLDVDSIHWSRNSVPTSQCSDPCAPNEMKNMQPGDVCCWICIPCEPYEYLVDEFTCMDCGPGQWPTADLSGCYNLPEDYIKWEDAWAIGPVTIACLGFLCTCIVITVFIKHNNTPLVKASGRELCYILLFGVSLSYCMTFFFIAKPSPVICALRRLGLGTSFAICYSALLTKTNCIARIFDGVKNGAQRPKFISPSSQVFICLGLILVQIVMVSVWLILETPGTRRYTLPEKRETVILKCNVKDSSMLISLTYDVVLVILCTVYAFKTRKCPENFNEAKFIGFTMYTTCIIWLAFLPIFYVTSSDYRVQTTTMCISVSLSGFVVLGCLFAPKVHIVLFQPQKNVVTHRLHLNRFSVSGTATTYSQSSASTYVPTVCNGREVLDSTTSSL

[1] = PAM mode, mean ± SEM, at least three experiments

SMILES	EC50 (mGlu2; [1]) [nM]	Emax (mGlu2) [%]	EC50 (mGlu3; PAM mode, mean ± SEM) [nM]	Emax (mGlu3) [%]	mGlu2 PAM Max (mGlu2; PAM mode, % Glutamate Max, mean ± SEM, at least three experiments) [%]	mGlu3 PAM Max (mGlu3; PAM mode, % Glutamate Max, mean ± SEM) [%]
COc1ccc(C(=O)NS(C)(=O)=O)cc1OCCCCOc1ccc(C(=O)CC(C)(C)C)c(O)c1C [compound 93, 3-(4-(4-(3,3-Dimethylbutanoyl)-3-hydroxy-2-methylphenoxy)butoxy)-4-methoxy-N-(methylsulfonyl)benzamide]	250 ± 55	98.1 ± 1.1	265 ± 50	110 ± 1.3		
Cc1c(OCc2cncc(-c3cccc(C(=O)O)c3)c2)ccc(C(=O)CC(C)(C)C)c1O [compound 150, 3-(5-((4-(3,3-Dimethylbutanoyl)-3-hydroxy-2-methylphenoxy)methyl)pyridin-3-yl)benzoic acid]	345 ± 2	107 ± 2.6	345 ± 9	107 ± 6.3		
Cc1c(OCc2cccc(-c3ccc(C(=O)O)cc3Cl)c2)ccc(C(=O)CC(C)(C)C)c1O [compound 147, 2-Chloro-3′-((4-(3,3-dimethylbutanoyl)-3-hydroxy-2-methylphenoxy)methyl)-[1,1′-biphenyl]-4-carboxylic acid]	460 ± 158	98.6 ± 5.7	2280 ± 827	81.4 ± 9.7		
Cc1c(OCCCCOc2ccc(C#N)cc2)ccc(C(=O)CC(C)C)c1C [compound 77]	> 30000		> 30000			
Cc1c(OCCCCOc2ccc(C#N)cc2)ccc(C(=O)CC2CCCC2)c1C [compound 76]	> 30000		> 30000			
Cc1c(OCCCCOc2ccccn2)ccc(C(=O)CC2CCCC2)c1C [Compound 194]	> 10000		> 30000			
COc1ccc(B2OC(C)(C)C(C)(C)O2)cc1OCCCCOc1ccc(C(=O)CC(C)(C)C)c(O)c1C [compound 87, 1-(2-Hydroxy-4-(4-(2-methoxy-5-(4,4,5,5-tetramethyl-1,3,2-dioxaborolan-2-yl)phenoxy)butoxy)-3-methylphenyl)-3,3-dimethylbutan-1-one]		49.5 ± 3.5		24.9 ± 9.6		
CC(=O)c1ccc(OCc2cccc(-c3cccc(C(=O)O)c3)c2)c(C)c1O [compound 128, 3′-((4-Acetyl-3-hydroxy-2-methylphenoxy)methyl)-[1,1′-biphenyl]-3-carboxylic acid]	35 ± 13	57.9 ± 6.6	1290 ± 781	67.8 ± 8.7		
COC(=O)c1ccc(OCc2cccc(COc3ccc(C(=O)CC(C)C)c(C)c3C)c2)cc1 [compound 116]	> 30000		> 30000			
Cc1c(OCc2nnc(-c3cccc(C(=O)O)c3)s2)ccc(C(=O)CC(C)(C)C)c1O [compound 165, 3-(5-((4-(3,3-Dimethylbutanoyl)-3-hydroxy-2-methylphenoxy)methyl)-1,3,4-thiadiazol-2-yl)benzoic acid]	1658 ± 8	85.6 ± 1.3	1410 ± 34	95 ± 2.5		
Cc1c(OCc2cccc(-c3cccc(C(=O)O)c3)n2)ccc(C(=O)CC(C)(C)C)c1O [compound 159, 3-(6-((4-(3,3-Dimethylbutanoyl)-3-hydroxy-2-methylphenoxy)methyl)pyridin-2-yl)benzoic acid]	929 ± 12	104 ± 2.5	967 ± 8	115 ± 2.1		
Cc1c(OCc2cccc(-c3ccc(Cl)c(C(=O)O)c3)c2)ccc(C(=O)CC(C)(C)C)c1O [compound 133, 4-Chloro-3′-((4-(3,3-dimethylbutanoyl)-3-hydroxy-2-methylphenoxy)methyl)-[1,1′-biphenyl]-3-carboxylic acid]	433 ± 99	90.2 ± 4.1	1710 ± 888	70.9 ± 3.6		
COc1ccc(C(=O)NCC(C)C)cc1OCCCCOc1ccc(C(=O)CC(C)(C)C)c(O)c1C [compound 110, 3-(4-(4-(3,3-Dimethylbutanoyl)-3-hydroxy-2-methylphenoxy)butoxy)-N-isobutyl-4-methoxybenzamide]	6400 ± 389	48.4 ± 5.5	> 30000	31.7 ± 8.5		
CCN(CC)C(=O)c1ccc(OC)c(OCCCCOc2ccc(C(=O)CC(C)(C)C)c(O)c2C)c1 [compound 103, 3-(4-(4-(3,3-Dimethylbutanoyl)-3-hydroxy-2-methylphenoxy)butoxy)-N,N-diethyl-4-methoxybenzamide]	608 ± 10	96.4 ± 2.1	497 ± 6	111 ± 3.4		
COc1ccc(C(=O)N2CCN(S(C)(=O)=O)CC2)cc1OCCCCOc1ccc(C(=O)CC(C)(C)C)c(O)c1C [compound 107, 1-{2-Hydroxy-4-[4-(2-methoxy-5-{[4-(methylsulfonyl)piperazinyl]carbonyl}phenoxy)butoxy]-3-methylphenyl}-3,3-dimethylbutan-1-one]	> 30000		> 30000		22.1 ± 1.1	22.9 ± 1.5
COc1ccc(B(O)O)cc1OCCCCOc1ccc(C(=O)CC(C)(C)C)c(O)c1C [compound 95, (3-(4-(4-(3,3-Dimethylbutanoyl)-3-hydroxy-2-methylphenoxy)butoxy)-4-methoxyphenyl)boronic acid]	3010 ± 988	27.5 ± 2.7	> 30000	26.2 ± 11.7		

SMILES	EC50 (mGlu2; [1]) [nM]	Emax (mGlu2) [%]	EC50 (mGlu3; PAM mode, mean ± SEM) [nM]	Emax (mGlu3) [%]	mGlu2 PAM Max (mGlu2; PAM mode, % Glutamate Max, mean ± SEM, at least three experiments) [%]	mGlu3 PAM Max (mGlu3; PAM mode, % Glutamate Max, mean ± SEM) [%]
COc1ccc(C(=O)O)cc1OCCCCOc1ccc(C(=O)CCC(C)(C)C)c(O)c1C [compound 96, 3-(4-(4-(4,4-Dimethylpentanoyl)-3-hydroxy-2-methylphenoxy)butoxy)-4-methoxybenzoic acid]		88.6 ± 0.9		95.3 ± 5		
COc1ccc(C(=O)NC2CC2)cc1OCCCCOc1ccc(C(=O)CC(C)(C)C)c(O)c1C [compound 109, N-Cyclopropyl-3-(4-(4-(3,3-dimethylbutanoyl)-3-hydroxy-2-methylphenoxy)butoxy)-4-methoxybenzamide]	765 ± 5	101.5 ± 0.9	578 ± 12	106 ± 5.1		
Cc1c(OCc2cccc(-c3cccc(C#N)c3)c2)ccc(C(=O)CC(C)(C)C)c1O [compound 151, 3′-((4-(3,3-Dimethylbutanoyl)-3-hydroxy-2-methylphenoxy)methyl)-[1,1′-biphenyl]-3-carbonitrile]	> 10000	50.2 ± 7.4	> 10000	35.5 ± 3.8		
COC(=O)c1ccc(OCCCCOc2ccc(C(=O)CC(C)C)c(C)c2C)cc1 [Compound 14, Methyl 4-(4-(2,3-dimethyl-4-(3-methylbutanoyl)phenoxy)butoxy)benzoate]	> 30000		> 30000			
Cc1c(OCCCCSc2ccccn2)ccc(C(=O)CC(C)C)c1O [Compound 184]	> 10000		> 30000			
CCCc1c(OCCCCOc2ccc(C(=O)O)cc2OC)ccc(C(C)=O)c1O [Compound 190, 4-(4-(4-Acetyl-3-hydroxy-2-propylphenoxy)butoxy)-3-methoxybenzoic acid]		64.9 ± 5.1		12.1 ± 12.8		
Cc1c(OCc2ncc(-c3cccc(C(=O)O)c3)s2)ccc(C(=O)CC(C)(C)C)c1O [compound 161, 3-(2-((4-(3,3-Dimethylbutanoyl)-3-hydroxy-2-methylphenoxy)methyl)thiazol-5-yl)benzoic acid]	1878 ± 17	98.2 ± 5.2	3180 ± 68	114 ± 3.9		
COC(=O)c1ccc(OCc2cccc(COc3ccc(C(=O)CC(C)C)c(O)c3C)c2)cc1 [compound 119]	> 30000		> 30000			
COc1ccc(-c2cccc(COc3ccc(C(=O)CC(C)(C)C)c(O)c3C)c2)cc1C(=O)O [compound 140, 3′-((4-(3,3-Dimethylbutanoyl)-3-hydroxy-2-methylphenoxy)methyl)-4-methoxy-[1,1′-biphenyl]-3-carboxylic acid]	489 ± 73	86.1 ± 6.1	8410 ± 4840	67.2 ± 13.3		
COc1ccc(-c2nsc(=O)[nH]2)cc1OCCCCOc1ccc(C(=O)CC(C)(C)C)c(O)c1C [compound 100, 3-(3-(4-(4-(3,3-Dimethylbutanoyl)-3-hydroxy-2-methylphenoxy)butoxy)-4-methoxyphenyl)-1,2,4-thiadiazol-5(4H)-one]	2220 ± 709	68.1 ± 0.9	> 30000	33.9 ± 10.1		
Cc1c(OCc2cccc(-c3cccc(C(=O)NS(C)(=O)=O)c3)c2)ccc(C(=O)CC(C)(C)C)c1O [compound 156, 3′-((4-(3,3-Dimethylbutanoyl)-3-hydroxy-2-methylphenoxy)methyl)-N-(methylsulfonyl)-[1,1′-biphenyl]-3-carboxamide]		105 ± 2.1		103 ± 1.7		
Cc1c(OCCCCOc2ccc(C(=O)O)cc2)ccc(C(=O)CC2CCCC2)c1C [Compound 19, 4-(4-(4-(2-Cyclopentylacetyl)-2,3-dimethylphenoxy)butoxy)benzoic acid]	> 30000		> 30000			
Cc1c(OCc2cccc(-c3occc3C(=O)O)c2)ccc(C(=O)CC(C)(C)C)c1O [Compound 178, 2-(3-((4-(3,3-Dimethylbutanoyl)-3-hydroxy-2-methylphenoxy)methyl)phenyl)furan-3-carboxylic acid]	409 ± 105	81.4 ± 10.1	2870 ± 1120	67.7 ± 11.7		
COc1ccc(/C(N)=N/O)cc1OCCCCOc1ccc(C(=O)CC(C)(C)C)c(O)c1C [compound 97, (Z)-3-(4-(4-(3,3-Dimethylbutanoyl)-3-hydroxy-2-methylphenoxy)butoxy)-N′-hydroxy-4-methoxybenzimidamide]	> 10000	57.2 ± 1.4	> 30000	24.4 ± 4.7		
Cc1c(OCc2ccc(-c3cccc(C(=O)O)c3)o2)ccc(C(=O)CC(C)(C)C)c1O [compound 158, 3-(5-((4-(3,3-Dimethylbutanoyl)-3-hydroxy-2-methylphenoxy)methyl)furan-2-yl)benzoic acid]	328	106 ± 3.8	421 ± 5	110 ± 3.9		
